Measured values: US20240300933A1, “SALT AND CRYSTAL FORMS OF AN HMOX1 INDUCER” (MITOBRIDGE INC., priority 2021, published 2024)
Values after ≈ are worked out from the molar mass of the structure shown.

Columns and labels:
[1] = Hygroscopicity by dynamic vapor sorption (DVS); conditions: for weight gain: DVS, 25° C., at 90% RH; for hygroscopicity compared with the citrate salt, in words: monophosphate
Method: Dynamic vapor sorption (DVS) was performed with an ADVENTURE series DVS at 25° C. under nitrogen blow. Approximately 30 milligrams of material was used.

[2] = Thermodynamic solubility in water and bio-media (SGF, FaSSIF, FeSSIF) at 37° C.; format: physicochemical; conditions: for pH / FC (Form Change) / solubility at 1 h / solubility at 4 h / solubility at 24 h: 37° C.; for pH: filtrate of supernatant; for solubility at 1 h / solubility at 4 h / solubility at 24 h: thermodynamic from solid
Method: Specifically, about 40 mg samples (calculated with freebase) were added to 4.0 mL of each buffer. After shaking at 100 rpm at 37° C. for 1/4/24 hour(s), about 1.0 mL of each suspension was centrifuged for 5 minutes. The solids were analyzed by XRPD for crystal form, and the filtrates of supernatants were detected by HPLC for solubility and by pH meter for pH value.

[3] = PK study in Cynomolgus macaques, PO single dose; format: in vivo, Cynomolgus macaques (Macaca fascicularis); conditions: for exposure (AUC) compared to the free form, in words: Cynomolgus monkeys, monophosphate; for AUC(0-inf) / AUC(0-t) / Cmax: male, cynomolgus monkey, blood
Method: A PK Study of Crystalline form of 1:1 compound (I) Phosphate and compound (I) crystal form was conducted in Cynomolgus macaques (Cynomolgus non-human primates; Macaca fascicularis). […] Blood samples were collected at 0.25, 0.5, 1, 2, 4, 6, 8 and 24 hours, and were analyzed to determine Cmax and exposure (AUC).

pKa of the freebase form = format: physicochemical; conditions: basic
[4] = simulated gastric fluid, SGF, 1 Hr
[5] = simulated gastric fluid, SGF, 4 Hrs
[6] = simulated gastric fluid, SGF, 24 Hrs
[7] = Cynomolgus macaques, 10 mg/Kg PO single dose
[8] = Cynomolgus macaques, 100 mg/Kg PO single dose

For Citrate, the weight gain [1] was 3.223%.
For `Cn1c(Nc2nc3ccccc3o2)nc2cc(C(=O)NCCOCCO)ccc21.O=P(O)(O)O` [1:1 Compound (I) Phosphate, 2-[(1,3-benzoxazol-2-yl)amino]-N-[2-(2-hydroxyethoxy)ethyl]-1-methyl-1H-benzimidazole-5-carboxamide monophosphate], the “solubility compared to Compound (I), in words” value ([2]; FaSSIF and SGF) was “improved solubility”, the pH ([2]; FaSSIF, 1 Hr) was 2.37 and the “FC (Form Change)” value ([2]; FaSSIF, 1 Hr, solid by XRPD) was “Yes”. For the same compound, the pH ([2]; FaSSIF, 4 Hrs) was 2.37, the pH ([2]; FaSSIF, 24 Hrs) was 2.36 and the pH ([2]; FeSSIF, 1 Hr) was 4.06. The “FC (Form Change)” value ([2]; FeSSIF, 1 Hr, solid by XRPD) was “Yes”, the pH ([2]; FeSSIF, 4 Hrs) was 4.21 and the pH ([2]; FeSSIF, 24 Hrs) was 4.31. For the same compound, the “FC (Form Change)” value ([2]; SGF, 1 Hr) was “Clear”, the pH ([2]; SGF, 1 Hr) was 1.36 and the “FC (Form Change)” value ([2]; SGF, 4 Hrs) was “Clear”. The pH ([2]; SGF, 4 Hrs) was 1.37, the “FC (Form Change)” value ([2]; SGF, 24 Hrs) was “Clear” and the pH ([2]; SGF, 24 Hrs) was 1.41. It also gave a solubility at 1 h [2, 4] of over 25900 µg/mL, a solubility at 4 h [2, 5] of over 28400 µg/mL and a solubility at 24 h [2, 6] of over 28400 µg/mL. It also gave a solubility at 1 h ([2]; FaSSIF, 1 Hr) of 190 µg/mL, a solubility at 4 h ([2]; FaSSIF, 4 Hrs) of 180 µg/mL and a solubility at 24 h ([2]; FaSSIF, 24 Hrs) of 70 µg/mL. The solubility at 1 h ([2]; FeSSIF, 1 Hr) was 1400 µg/mL, the solubility at 4 h ([2]; FeSSIF, 4 Hrs) was 770 µg/mL and the solubility at 24 h ([2]; FeSSIF, 24 Hrs) was 390 µg/mL. For the same compound, the solubility at 1 h ([2]; water, 1 Hr) was 4390 µg/mL, the solubility at 4 h ([2]; water, 4 Hrs) was 3230 µg/mL and the solubility at 24 h ([2]; water, 24 Hrs) was 2060 µg/mL. The “solubility compared to the free form, in words” value ([2]; water and bio-relevant media) was “significant solubility improvement”, the pH ([2]; water, 1 Hr) was 2.05 and the “FC (Form Change)” value ([2]; water, 1 Hr, solid by XRPD) was “Yes”. The pH ([2]; water, 4 Hrs) was 2.04, the pH ([2]; water, 24 Hrs) was 1.97 and the “higher exposure compared to free form Compound (I)” value ([3]; Cynomolgus macaques, 10 and 100 mpk oral dose) was 1.5 times. The “Cmax compared to the free form, in words” value ([3]; Cynomolgus macaques, Table 7) was “roughly double”, the “exposure (AUC) compared to the free form, in words” value ([3]; 10 and 100 mpk oral dose, listed as phosphate salt) was “roughly double” and the “exposure (AUC) compared to the free form, in words” value ([3]; 10 and 100 mpk oral dose) was “roughly twice the exposure”. It also gave an AUC(0-inf) [3, 7] of 3590 ng·h/mL, an AUC(0-t) [3, 7] of 3480 ng·h/mL and a Cmax [3, 7] of 322 ng/mL. The AUC(0-inf) [3, 8] was 9330 ng·h/mL, the AUC(0-t) [3, 8] was 7580 ng·h/mL and the Cmax [3, 8] was 723 ng/mL. The weight gain [1] was 0.835%, the “hygroscopicity compared with the citrate salt, in words” value ([1]; listed as phosphate salt) was “lower hygroscopicity” and the “hygroscopicity compared with the citrate salt, in words” value [1] was “low hygroscopicity”.
For `Cn1c(Nc2nc3ccccc3o2)nc2cc(C(=O)NCCOCCO)ccc21` [Compound (I), 2-[(1,3-benzoxazol-2-yl)amino]-N-[2-(2-hydroxyethoxy)ethyl]-1-methyl-1H-benzimidazole-5-carboxamide], the pKa (pKa of the freebase form) was about 2.75, the pH ([2]; FaSSIF, 1 Hr) was 6.30 and the “FC (Form Change)” value ([2]; FaSSIF, 1 Hr, solid by XRPD) was “No”. For the same compound, the pH ([2]; FaSSIF, 4 Hrs) was 6.35, the “FC (Form Change)” value ([2]; FaSSIF, 4 Hrs, solid by XRPD) was “No” and the pH ([2]; FaSSIF, 24 Hrs) was 5.99. The “FC (Form Change)” value ([2]; FaSSIF, 24 Hrs, solid by XRPD) was “No”, the pH ([2]; FeSSIF, 1 Hr) was 4.78 and the “FC (Form Change)” value ([2]; FeSSIF, 1 Hr, solid by XRPD) was “No”. The pH ([2]; FeSSIF, 4 Hrs) was 4.73, the “FC (Form Change)” value ([2]; FeSSIF, 4 Hrs, solid by XRPD) was “No” and the pH ([2]; FeSSIF, 24 Hrs) was 4.81. The “FC (Form Change)” value ([2]; FeSSIF, 24 Hrs, solid by XRPD) was “No”, the “FC (Form Change)” value ([2]; SGF, 1 Hr) was “No” and the pH ([2]; SGF, 1 Hr) was 2.34. The “FC (Form Change)” value ([2]; SGF, 4 Hrs) was “No”, the pH ([2]; SGF, 4 Hrs) was 2.16 and the “FC (Form Change)” value ([2]; SGF, 24 Hrs) was “No”. The pH ([2]; SGF, 24 Hrs) was 2.51, the solubility at 1 h [2, 4] was 7040 µg/mL (≈ 17.8 mM) and the solubility at 4 h [2, 5] was 6860 µg/mL (≈ 17.3 mM). For the same compound, the solubility at 24 h [2, 6] was 7080 µg/mL (≈ 17.9 mM), the pH ([2]; water, 1 Hr) was 5.69 and the “FC (Form Change)” value ([2]; water, 1 Hr, solid by XRPD) was “No”. The pH ([2]; water, 4 Hrs) was 5.07, the “FC (Form Change)” value ([2]; water, 4 Hrs, solid by XRPD) was “No” and the pH ([2]; water, 24 Hrs) was 5.95. For the same compound, the “FC (Form Change)” value ([2]; water, 24 Hrs, solid by XRPD) was “No”, the AUC(0-inf) [3, 7] was 2030 ng·h/mL and the AUC(0-t) [3, 7] was 1920 ng·h/mL. For the same compound, the Cmax [3, 7] was 164 ng/mL, the AUC(0-inf) [3, 8] was 4740 ng·h/mL and the AUC(0-t) [3, 8] was 4080 ng·h/mL. For the same compound, the Cmax [3, 8] was 350 ng/mL.
